The source of these data is US20120316169A1, “2-ARYL-PROPIONAMIDE DERIVATIVES USEFUL AS BRADYKININ RECEPTOR ANTAGONISTS AND PHARMACEUTICAL COMPOSITIONS CONTAINING THEM” (DOMPÉ S.P.A., priority 2009, published 2012).

A word on the IC50: it is the midpoint of a concentration-inhibition curve.

The assay concerns the target T1, BKB1 receptors (Homo sapiens, UniProt P46663).
T1 construct: Human (IMR-90) lung fibroblast cells expressing native B1 receptors; endogenous in cells; host or cells: IMR-90 human lung fibroblasts, interleukin-treated to up-regulate BKB1 receptors
T1 sequence (P46663 1-353): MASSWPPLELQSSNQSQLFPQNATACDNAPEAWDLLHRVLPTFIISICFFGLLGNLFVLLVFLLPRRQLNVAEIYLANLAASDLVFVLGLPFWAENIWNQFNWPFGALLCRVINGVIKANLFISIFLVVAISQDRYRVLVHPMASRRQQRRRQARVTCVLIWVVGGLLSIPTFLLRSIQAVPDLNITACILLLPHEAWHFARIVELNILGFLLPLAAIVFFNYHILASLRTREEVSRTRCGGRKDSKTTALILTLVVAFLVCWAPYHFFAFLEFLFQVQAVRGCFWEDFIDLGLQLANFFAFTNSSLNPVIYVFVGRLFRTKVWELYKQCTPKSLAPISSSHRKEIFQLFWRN
The experiment in a line: Calcium mobilization assay (FLIPR), B1 receptors in IMR-90 cells. In kind it is cell-based. As to conditions: Human IMR-90 lung fibroblast cells, up-regulated BKB1 receptors, agonist desArg10-kallidin (DAKD) 2 to 8 nM, calcium-dependent fluorescence. As to the method: Calcium mobilization assay (FLIPR)—Human (IMR-90) lung fibroblast cells expressing native B1 receptors were harvested by trypsinization and seeded into black wall/clear bottom 96-well plates (Costar 3904; Corning Life Sciences, Acton, Mass.) at approximately 13,000 cells/well. After 1 day incubation, cells were treated with […] (0.35 ng/ml) in 10% FBS/MEM for 2 h to up-regulate BKB1 receptors. Induced cells were loaded with fluorescent calcium indicator by incubation with 2.3 μM Fluo-4/acetoxymethyl ester (Invitrogen) at 37° C. for 1.5 h in the presence of an anion transport inhibitor (2.5 mM probenecid in 1% FBS/MEM). Extracellular dye was removed by washing with assay buffer (2.5 mM probenecid, 0.1% BSA in 20 mM HEPES/HBSS without bicarbonate or phenol red, pH 7.5) and cell plates were kept in the dark until used. Test compounds were assayed at eight concentrations in triplicate. Addition of test compounds to the cell plate and incubation for 5 min at 35° C., followed by the addition of 2 to 8 nM final BK1 agonist desArg^10-kallidin (DAKD, 3×EC50) was carried out in the fluorimetric imaging plate reader (FLIPR; Molecular Devices) while continuously monitoring calcium-dependent fluorescence.
For orientation: A change in cytosolic calcium serves as a functional read-out for many receptors and channels.
On to `CC(F)(C(N)=O)c1ccc(OS(=O)(=O)C(F)(F)F)cc1` (stereo not drawn) [Compound 1, 4-(1-amino-2-fluoro-1-oxopropan-2-yl)phenyl trifluoromethanesulfonate], for which the IC50 is 6.46 µM.

As to `Cc1ccnn1CCNC(=O)C(C)(F)c1ccc(OS(=O)(=O)C(F)(F)F)cc1` (stereo not drawn) [Compound 2, 4-(2-fluoro-1-{[2-(5-methyl-1H-pyrazol-1-yl)ethyl]amino}-1-oxopropan-2-yl)phenyl trifluoromethanesulfonate], the IC50 is 6.17 µM.

As to `CC(F)(C(=O)NCCNc1ccccn1)c1ccc(OS(=O)(=O)C(F)(F)F)cc1` (stereo not drawn) [Compound 3, 4-(2-fluoro-1-oxo-1-{[2-(pyridin-2-ylamino)ethyl]amino}propan-2-yl)phenyl trifluoromethanesulfonate], the IC50 is 13.2 µM.

Take `CC(F)(C(=O)Nc1ccsc1S(N)(=O)=O)c1cccc(Nc2nc(C(F)(F)F)cs2)c1` (stereo not drawn) [Compound 4, 2-fluoro-N-(2-sulfamoylthiophen-3-yl)-2-(3-{[4-(trifluoromethyl)-1,3-thiazol-2-yl]amino}phenyl)propanamide]: the IC50 was 4.27 µM.

As for `CC(F)(C(=O)Nc1ccccc1S(N)(=O)=O)c1cccc(Nc2nc(C(F)(F)F)cs2)c1` (stereo not drawn) [Compound 5, 2-fluoro-N-(2-sulfamoylphenyl)-2-(3-{[4-(trifluoromethyl)-1,3-thiazol-2-yl]amino}phenyl)propanamide], the IC50 was 8.71 µM.

As to `CC(C)(C)NC(=O)CNC(=O)C(C)(C)c1ccc(OS(=O)(=O)C(F)(F)F)cc1` [Compound 6, 4-(2-methyl-1-{[2-(tert-butylamino)-2-oxoethyl]amino}-1-oxopropan-2-yl)phenyl trifluoromethanesulfonate], the IC50 was 17.8 µM.

As for `CC(C)(C(=O)NCCc1ccncc1)c1ccc(OS(=O)(=O)C(F)(F)F)cc1` [Compound 7, 4-(2-methyl-1-oxo-1-{[2-(pyridin-4-yl)ethyl]amino}propan-2-yl)phenyl trifluoromethanesulfonate], the IC50 is 11.5 µM.

As to `CCn1cc(NC(=O)C(C)c2ccc(C(=O)c3ccccc3)s2)c(C)n1` (stereo not drawn) [Compound 8, N-(1-ethyl-3-methyl-1H-pyrazol-4-yl)-2-[5-(phenylcarbonyl)thiophen-2-yl]propanamide], the IC50 is 2.63 µM.

Turning to `COc1cccc(Nc2ccc(C(C)C(=O)NC3CCN(Cc4ccccc4)CC3)cc2)c1` (stereo not drawn) [Compound 9, 2-{4-[(3-methoxyphenyl)amino]phenyl}-N-(1-benzylpiperidin-4-yl)propanamide], the IC50 is 7.76 µM.

Take `COc1cccc(Nc2ccc(C(C)C(=O)Nc3cc(C)nn3C)cc2)c1` (stereo not drawn) [Compound 10]: the IC50 was 7.94 µM.

`Cc1cc(NC(=O)C(C)c2cccc(Oc3cccc(F)c3)c2)n(C)n1` (stereo not drawn) [Compound 11, N-(1,3-dimethyl-1H-pyrazol-5-yl)-2-[3-(3-fluorophenoxy)phenyl]propanamide]: the IC50 was 11.2 µM.

Take `CC(C(=O)NCCNc1ccccc1)c1cccc(Oc2cccc(F)c2)c1` (stereo not drawn) [Compound 12, 2-[3-(3-fluorophenoxy)phenyl]-N-[2-(phenylamino)ethyl]propanamide]: the IC50 was 7.24 µM.

On to `CC(C(=O)Nc1ccncn1)c1cccc(NC2CC2)c1` (stereo not drawn) [Compound 14, 2-[3-(cyclopropylamino)phenyl]-N-(pyrimidin-4-yl)propanamide], for which the IC50 is 6.31 µM.

For `CC(C(=O)Nc1ccncn1)c1cccc(Nc2ccc(N3CCOCC3)cc2)c1` (stereo not drawn) [Compound 15, 2-(3-{[4-(morpholin-4-yl)phenyl]amino}phenyl)N-(pyrimidin-4-yl)propanamide], the IC50 is 9.12 µM.

As to `Cc1ccc(Cl)c(Nc2ccc(C(C)C(=O)NCCN3CCOCC3)cc2)c1Cl` (stereo not drawn) [Compound 16, 2-{4-[(2,6-dichloro-3-methylphenyl)amino]phenyl}-N-[2-(morpholin-4-yl)ethyl]propanamide], the IC50 is 12 µM.

For `CC(C(=O)NCC(C)(C)N)c1cccc(Oc2cccc(OC(F)(F)F)c2)c1` (stereo not drawn) [Compound 18], the IC50 is 2.09 µM.

With `CC(C(=O)NCCN1CCCC1)c1cccc(Oc2cccc(OC(F)(F)F)c2)c1` (stereo not drawn) [Compound 19, N-[(2-pyrrolidin-1-yl)ethyl]-2-{3-[3-(trifluoromethoxy)phenoxy]phenyl}propanamide], the IC50 was 7.76 µM.

As for `CC(C(=O)NCCOc1ccc(F)cc1)c1cccc(OS(=O)(=O)C(F)(F)F)c1` (stereo not drawn) [Compound 20, 3-(1-{[2-(4-fluorophenoxy)ethyl]amino}-1-oxopropan-2-yl)phenyl trifluoromethanesulfonate], the IC50 is 16.6 µM.

With `CC(C(=O)Nc1nc(C(C)(C)C)cs1)c1ccc(NS(=O)(=O)C(C)C)cc1` (stereo not drawn) [Compound 21, 2-{4-[(propan-2-ylsulfonyl)amino]phenyl}-N-(4-tert-butyl-1,3-thiazol-2-yl)propanamide], the IC50 is 9.12 µM.

As to `COc1cccc(CN(C)CCNC(=O)C(C)c2ccc(NS(=O)(=O)C(C)C)cc2)c1` (stereo not drawn) [Compound 22], the IC50 was 8.13 µM.

Consider `C=C(C)CNC(=O)C(C)c1cccc(C(=O)c2cccs2)c1` (stereo not drawn) [Compound 23, N-(2-methylprop-2-en-1-yl)-2-[3-(thiophen-2-ylcarbonyl)phenyl]propanamide], for which the IC50 is 21.9 µM.

`Cc1cc(NC(=O)C(C)c2cccc(C(=O)c3cccs3)c2)n(C)n1` (stereo not drawn) [Compound 24, N-(1,3-dimethyl-1H-pyrazol-5-yl)-2-[3-(thiophen-2-ylcarbonyl)phenyl]propanamide]: the IC50 was 7.41 µM.

As for `COc1cccc(Nc2ccc(C(C)C(=O)Nc3cc(C)nn3C)cc2)c1OC` (stereo not drawn) [Compound 25, 2-{4-[(2,3-dimethoxyphenyl)amino]phenyl}-N-(1,3-dimethyl-1H-pyrazol-5-yl)propanamide], the IC50 is 3.09 µM.

Turning to `COc1cccc(Nc2ccc(C(C)C(=O)Nc3ccncn3)cc2)c1OC` (stereo not drawn) [Compound 26, 2-{4-[(2,3-dimethoxyphenyl)amino]phenyl}-N-(pyrimidin-4-yl)propanamide], the IC50 was 5.75 µM.

Regarding `CCCC/C=C/c1cccc(C(C)C(=O)NCCNC(C)C)c1` (stereo not drawn) [Compound 27, 2-{3-[hex-1-en-1-yl]phenyl}-N-[2-(propan-2-ylamino)ethyl]propanamide], the IC50 is 8.51 µM.

Regarding `CCCC/C=C/c1cccc(C(C)C(=O)Nc2ccncn2)c1` (stereo not drawn) [Compound 28, 2-{3-[hex-1-en-1-yl]phenyl}-N-(pyrimidin-4-yl)propanamide], the IC50 is 8.51 µM.

With `CCc1cc(NC(=O)C(C)c2ccc(Nc3nc(C(F)(F)F)co3)cc2)[nH]n1` (stereo not drawn) [Compound 29, N-(3-ethyl-1H-pyrazol-5-yl)-2-(4-{[4-(trifluoromethyl)-1,3-oxazol-2-yl]amino}phenyl)propanamide], the IC50 is 7.08 µM.

With `CC(C(=O)NCC(=O)NC(C)(C)C)c1ccc(Nc2nc(C(F)(F)F)co2)cc1` (stereo not drawn) [Compound 30, N-[2-(tert-butylamino)-2-oxoethyl]-2-(4-{[4-(trifluoromethyl)-1,3-oxazol-2-yl]amino}phenyl)propanamide], the IC50 was 7.76 µM.

Regarding `COc1cccc(CN(C)CCNC(=O)C(C)c2ccc(Nc3nc(C(F)(F)F)co3)cc2)c1` (stereo not drawn) [Compound 31, N-{2-[(3-methoxybenzyl)(methyl)amino]ethyl}-2-(4-{[4-(trifluoromethyl)-1,3-oxazol-2-yl]amino}phenyl)propanamide], the IC50 is 7.76 µM.

As to `Cc1ccc(OCC(O)CNC(=O)C(C)c2ccc(Nc3nc(C(F)(F)F)co3)cc2)cc1C` (stereo not drawn) [Compound 32, N-[2-hydroxy-3-(3,4-dimethylphenoxy)propyl]-2-(4-{[4-(trifluoromethyl)-1,3-oxazol-2-yl]amino}phenyl)propanamide], the IC50 is 8.32 µM.

For the molecule `CC(C(=O)Nc1nccs1)c1cccc(C(=O)c2ccccc2)c1` (stereo not drawn) [Compound 33, 2-[3-(phenylcarbonyl)phenyl]-N-(1,3-thiazol-2-yl)propanamide], the IC50 was 10.2 µM.

`CC(C(=O)NC1CCCCC1)c1cccc(C(=O)c2ccccc2)c1` (stereo not drawn) [Compound 34, N-cyclohexyl-2-[3-(phenylcarbonyl)phenyl]propanamide]: the IC50 was 8.51 µM.

Regarding `CC(C(=O)Nc1ccccc1)c1cccc(C(=O)c2ccccc2)c1` (stereo not drawn) [Compound 35, N-phenyl-2-[3-(phenylcarbonyl)phenyl]propanamide], the IC50 was 10 µM.

For `Cc1cc(NC(=O)C(C)c2cccc(C(=O)c3ccccc3)c2)n(C)n1` (stereo not drawn) [Compound 36, N-(1,3-dimethyl-1H-pyrazol-5-yl)-2-[3-(phenylcarbonyl)phenyl]propanamide], the IC50 was 9.77 µM.

Consider `CC(C)Cc1ccc(C(C)C(=O)Nc2ccncc2)cc1` (stereo not drawn) [Compound 37, 2-[4-(2-methylpropyl)phenyl]-N-(pyridin-4-yl)propanamide], for which the IC50 is 1.38 µM.

As to `CC(C)Cc1ccc(C(C)C(=O)NC(N)=O)cc1` (stereo not drawn) [Compound 38, N-carbamoyl-2-[4-(2-methylpropyl)phenyl]propanamide], the IC50 is 20 µM.
